# Laboratory results taken from PubChem BioAssay AID1863 (Southern Research Specialized Biocontainment Screening …, 2009).
# Values joined by “and” are separate entries in the source; they are usually repeats but may differ in a detail not shown here. Identical values can stand only once.
# Tested on: S. Typhimurium PhoP-regulated promoter GFP reporter, 4 h
# Assay: PhoP-dependent GFP reporter repression – Salmonella Typhimurium, primary screen (AID 1863)
row,Compound,IC50
1,CCn1cc(C(=O)O)c(=O)c2cc(F)c(N3CCN(C(=S)NC(=O)c4ccccc4F)CC3)cc21,28.5 µM
2,Cc1onc(-c2ccccc2)c1C(=O)NC(=S)NNC(=O)c1ccc(O)cc1O,111 µM
3,O=[N+]([O-])c1ccc(O)c(/C=N/Nc2ccccn2)c1,17 µM
4,CCn1cc(C(=O)O)c(=O)c2cc(F)c(N3CCN(C(=S)Nc4ccc(OC)cc4)CC3)cc21,6.05 µM
5,Nc1nc2ccccc2n1Cc1ccc(Cl)c(Cl)c1,82.9 µM
6,COc1cc(C)c(Cc2cnc(N)nc2N)cc1OC,11.7 µM
7,CC(C)NC1=C(Cl)C(=O)c2ccccc2C1=O,75.5 µM
8,CN(C)C1C(=O)C(C(N)=O)=C(O)C2(O)C(=O)C3=C(O)c4c(O)cccc4C(C)(O)C3C(O)C12 (stereo not given),1.7 µM
9,CCCc1nnc(NC(=O)c2cn(CC)c3cc(N4CCN(C)CC4)c(F)cc3c2=O)s1,67.3 µM
10,Oc1cccc(Nc2nc(NCC3CCCO3)c3ccccc3n2)c1 (stereo not given),140 µM
11,OC(c1cc(-c2ccc(C(F)(F)F)cc2)nc(C(F)(F)F)c1)C1CCCCN1 (stereo not given),38.1 µM
12,C[C@H]1c2cccc(O)c2C(O)=C2C(=O)C3(O)C(O)=C(C(N)=O)C(=O)[C@@H](N(C)C)[C@@H]3[C@@H](O)[C@@H]21 (stereo not given in full),6.6 µM
13,Cc1ccc(C)c(/C=C/C(=O)c2ccccc(=O)c2O)c1,89.4 µM
14,Cc1cc(C(=O)N/N=C/c2ccc([N+](=O)[O-])s2)n[nH]1,42.6 µM
15,NC1=NC[C@H](Cc2ccccc2)N1CCCCC1CCCCC1,47.7 µM
16,CN(C)c1ccc(/C=C/c2ccc3c4ccccc4ccc3[n+]2-c2ccccc2)cc1,21 µM
17,Oc1c(C(Nc2ccccn2)c2ccccn2)ccc2cccnc12 (stereo not given),91.6 µM
18,Cc1ccccc1OCc1n(CC(=O)OC2CC(C)CCC2C(C)C)c2ccccc2[n+]1C (stereo not given),71 µM
19,O=C1NN(c2ccccc2)C(=O)/C1=C\c1coc2ccc(O)cc2c1=O,132 µM
20,CC[n+]1c(/C=C/C=C/c2ccc(N(C)C)cc2)sc2ccccc21,69.6 µM
21,NC1=NC[C@H](c2ccccc2)N1CCCCC1CCCCC1,40.6 µM
22,CC1CCC(C(C)C)C(OC(=O)Cn2c(-c3ccc(Cl)cc3)[n+](C)c3ccccc32)C1 (stereo not given),83.7 µM

row,Compound,IC50
1,O=c1c(O)cccc2cc(O)c(O)c(O)c12,27.5 µM
2,O=C(N/N=C/c1cc(Cl)ccc1O)c1cccnc1,49.3 µM
3,COc1ccc2[nH]c3c(C)c4ccncc4c(C)c3c2c1,31.9 µM
4,CCC(C)NC(=O)c1cn(CC)c2cc(N3CCN(C)CC3)c(F)cc2c1=O (stereo not given),37.2 µM
5,O=C1C=C(O)c2c(O)cc(O)c(O)c2C1=O,73.2 µM
6,CN(O)/C=c1/ccc2c(n1)C(=O)C=CC=2,113 µM
7,Cc1cc(SCC(=O)N/N=C/c2ccc(O)c(O)c2O)c(C)cc1Br,41.6 µM
8,OCCNCc1c(OCc2ccc(Cl)cc2)ccc2ccccc12,127 µM
9,CCCNC1=C(C)C(=O)C2=C(C1=O)C(COC(N)=O)[C@]1(OC)C3NC3CN21 (stereo not given in full),23.8 µM
10,CCCCCN=C(N)N/N=C/c1c[nH]c2ccc(OC)cc12,51.2 µM
11,COC(=O)C1C(O)C(C)C(O)C(C)(O)/C=C\C=C(/C)C(=O)Nc2c(C)c(OC(C)=O)c3c(c2O)C(=O)C(C)=C2OCOC(=C23)/C(C)=C/C(C)(O)C(O)C(C)C1O (stereo not given),17.2 µM
12,CCn1cc(C(=O)O)c(=O)c2cc(F)c(N3CCN(C(=S)NC(=O)c4ccc(F)cc4)CC3)cc21,46.5 µM
13,NC(=NCCCCCCN=C(N)/N=C(\N)Nc1ccc(Cl)cc1)/N=C(\N)Nc1ccc(Cl)cc1,8.29 µM and 10.1 µM and 14.9 µM
14,O=c1c2c(-c3ccccc3)csc2nc2c3ccccc3c(NCCN3CCOCC3)nn12,53.3 µM
15,Nc1ncn(C2O[C@H](CO)[C@@H](O)[C@H]2O)c(=O)n1 (stereo not given in full),39.9 µM
16,C=C1c2c(Cl)ccc(O)c2C(O)=C2C(=O)[C@]3(O)C(O)=C(C(N)=O)C(=O)[C@@H](N(C)C)[C@@H]3[C@@H](O)C12 (stereo not given in full),2.22 µM
17,COc1ccc(/C=N/Nc2cc(C)nc3c(C)cccc23)cc1,80.6 µM
18,CCOc1ccc(NC(=O)c2ccc(NC(=O)c3cn4c5c(c(N6CCN(C)CC6)c(F)cc5c3=O)OCC4C)cc2)cc1 (stereo not given),2.93 µM
19,COc1c(N2CCN(C(=S)NCc3ccccc3)C(C)C2)c(F)cc2c(=O)c(C(=O)O)cn(C3CC3)c12 (stereo not given),43.3 µM
20,NC1CCN(c2c(F)cc3c(=O)c(C(=O)O)cn(C4CC4)c3c2Cl)C1 (stereo not given),< 0.23 µM
21,Oc1c(CN2CCc3ccccc3C2)cc(Cl)c2cccnc12,22 µM
22,Nc1nc(N2CCN(C/C=C/c3ccccc3)CC2)nc2ccccc12,147 µM

row,Compound,IC50
1,CC[C@H]1OC(=O)C[C@@H](O)[C@H](C)[C@@H](O[C@@H]2O[C@H](C)C[C@H](N(C)C)[C@H]2O)[C@@H](CC=O)C[C@@H](C)C(=O)C=C[C@]2(C)O[C@H]2[C@@H]1C,18.2 µM
2,Cc1ccc(Nc2cc(C)nn2-c2nc(C)cc(=O)[nH]2)cc1,32.4 µM
3,O=C(C[n+]1cccc(CNC(=O)c2ccc(OC(F)F)cc2)c1)Nc1ccc(SC(F)F)cc1,94.1 µM
4,Cc1ccc(C(=O)N/N=C/c2cc(Br)ccc2O)cn1,76.5 µM
5,N=c1n(CC(=O)c2ccc(Br)s2)c2ccccc2n1Cc1ccccc1,68.3 µM
6,CN(C)C1C(=O)C(C(N)=O)=C(O)C2(O)C(=O)C3=C(O)c4c(O)cccc4C(C)(O)C3CC12 (stereo not given),3.55 µM
7,C[C@H]1c2cccc(O)c2C(O)=C2C(=O)[C@]3(O)C(O)=C(C(N)=O)C(=O)[C@@H](N(C)C)C3[C@@H](O)C21 (stereo not given in full),5.2 µM
8,CCCCCCCCCCOC(=O)Cn1c(COc2ccccc2OC)[n+](C)c2ccccc21,28.6 µM
9,CN1CCN(c2c(F)cc3c(=O)c(C(=O)O)cn4c3c2SCC4)CC1,4.43 µM and 4.66 µM
10,OCCN1CCN(Cc2cc(Cl)c3cccnc3c2O)CC1,105 µM
11,CCn1cc(C(=O)NCCO)c(=O)c2cc(F)c(N3CCN(C)CC3)cc21,22.4 µM
12,CC(C)(C)/C(O)=C/c1nc2cc(Cl)ccc2oc1=O,99.5 µM
13,CCCC(=O)NC(c1cccs1)c1cc([N+](=O)[O-])c2cccnc2c1O (stereo not given),38.2 µM
14,CCCCCNCC(=O)Nc1cccc(C(=O)Nc2cccc(C(F)(F)F)c2)c1,94.4 µM
15,O=[N+]([O-])c1ccc(CNC2CCCc3ccccc32)cc1 (stereo not given),81 µM
16,O=[N+]([O-])c1ccc(-c2ccn[nH]2)o1,38.3 µM
17,O=C1C(SCCO)=C(SCCO)C(=O)c2ccccc21,70.9 µM
18,O=C(Oc1c(Cl)cc(Cl)c2cccnc12)c1ccco1,46.5 µM
19,Clc1ccc(CN2CCC(c3nc4ccc(Cl)cc4[nH]3)CC2)cc1,79.6 µM
20,NCC12CC3CC(C1)CC(c1ccc(Br)cc1)(C3)C2,61.6 µM
21,CCn1cc(C(=O)O)c(=O)c2cc(F)c(N3CCN(C(=S)NC(=O)c4ccccc4)CC3)cc21,10.5 µM
